Experimental data published in paper PMC4815073, “Targeting of tubulin polymerization and induction of mitotic blockage by Methyl 2-(5-fluoro-2-hydroxyphenyl)-1H-benzo[d]imidazole-5-carboxylate (MBIC) in human cervical cancer HeLa cell” (Journal of Experimental & Clinical Cancer Research : CR, 2016).

Tests used:
HeLa cells [1] = assay: Drug combination assay (MTT, Chou-Talalay, CampuSyn); type: cell-based; details: Homo sapiens, 24 h, drug alone, read-out: (Dm)IC50 Drug 2 (MBIC alone)
Experimental: In order to discover the synergistic effects of MBIC with conventional drugs briefly, cells were seeded in 1 × 10^4 cells/well and were incubated at 37 °C overnight. […] Also, the MBIC, combined with each of the selected conventional drugs in a 1:1 ratio, were diluted in concentration from 50 μM to 0.1 μM. Cell viability assay (MTT assay) was performed 24 h post-treatment and absorbance were measured in a microplate reader to find out the IC50 for each conventional drug alone and in combination with MBIC on HeLa cells. For this analysis, we used the commercial software package CampuSyn (Biosoft, Cambridge, United Kingdom; Ref.9). […] Furthermore, the software produced an automated isobologram and fraction affected-combination index (Fa-CI) plot.

HeLa cells [2] = assay: Multiparameter cytotoxicity assay (Cellomics HCS); type: cell-based, human; details: 24 h
Experimental: The critical apoptotic events in cervical cancer including cell permeability, mitochondrial membrane potential (MMP), cytochrome c release and total nuclear intensity after treatment with MBIC were determined using the Cellomics Multiparameter Cytotoxicity 3 Kit. Briefly, 1 × 10 ^4 cells/well were seeded in a 96-well plate and incubated for 24 h prior to treatment with MBIC at various concentrations. At 24 h post treatment, cells were stained with cell permeability and MMP dye and further incubated for 1 h. Stained cells were fixed and permeabilized with 4 % formaldehyde and 0.1 % Triton X-100 in PBS, respectively. Cells were washed twice with 1X PBS prior to blocking with 3 % bovine serum albumin.
Cells were rinsed twice with Wash Buffer I (1X PBS) and incubated with 50 μl/well of Cytochrome c primary antibody. After 60 min, the plate was washed with 1X Wash Buffer and subsequently, 50 μl of goat anti-mouse secondary antibodies conjugated with DyLight 649 were added into each well. Cells were rinsed twice with Wash Buffer I (1X PBS). Hoechst 33342 was added into the staining solution to stain the nucleus. Stained cells in the 96-well plates were analyzed using ArrayScan High Content Screening (HCS) system (Thermo Scientific, USA).

[3] = system: human cancer cell lines (HCT-116, A549, HepG-2, HeLa); assay: MTT cytotoxicity assay, human cancer cell lines taken together; type: cell-based
From the text: (§1) The human cervical cancer cell-line, HeLa (CCL-2.2; ATCC, Manassas, VA), HCT-116 (CCL-247; ATCC, Manassas, VA), A549 (CCL-185; ATCC, Manassas, VA), HepG-2 (HB-8065; ATCC, Manassas, VA) and WRL-68 (CL-48; ATCC, Manassas, VA), were obtained from American Type Culture Collection (ATCC). HeLa, A549, HepG2 and WRL68 cells were maintained in Dulbecco’s Modified Eagle Medium (DMEM, Life Technologies, Inc, Rockville, MD). HCT-116 was obtained in McCoy’s 5a Medium Modified (Life Technologies, Inc, Rockville, MD) supplemented with 10 % fetal bovine serum and 1 % penicillin/streptomycin. Cells were incubated at 37 °C in a humidified cell culture 5 % CO2 incubator. Cells were passaged until reaching 70-80-% confluency for experimental purposes.
Cytotoxicity of MBIC was estimated by MTT assay. Briefly, 1 × 10^4 cells/well were seeded in a 96-well plate and incubated at 37 °C in 5 % CO2. After 24 h, cells were treated with different concentrations (0.02, 0.04, 0.1, 0.2, 0.4, 0.8, 1.5, 3, 6, 12, 25, 50 μM) of MBIC. 0.01 % DMSO was used as vehicle control. Cells were incubated for 24 and 48 h at 37 °C. […] The colorimetric assay was quantified at 570 nm wavelength using Chameleon V microplate reader (Hidex, Turku, Finland). The anti-proliferation activity of MBIC was expressed as an IC50 value. The percentage of cell viability was calculated as described previously.

[4] = system: HeLa cells expressing EGFP-α-tubulin, EGFP-CENP-A and histone H2B-mCherry; assay: Live-cell imaging of mitotic spindle; type: cell-based, human; details: MBIC 10 μM, nocodazole 2 μM; imaged at 15 min intervals
Experimental: HeLa cells expressing EGFP-α-tubulin, EGFP-CENP-A and histone H2B-mCherry were grown in glass chambers (Thermo Scientific, USA). Thirty minutes before imaging, the medium was changed to pre-warmed Leibovitz’s L-15 medium (Life Technologies) supplemented with 20 % fetal bovine serum and 20 mM HEPES, pH 7.0. Recordings were made in a temperature-controlled incubator at 37 °C. Images were collected with an Olympus IX-71 inverted microscope (Olympus) controlled by DeltaVision softWoRx (Applied Precision) using a 20x 0.75 NA UPlan SApochromat objective lens (Olympus). Z-series of six sections in 3 μm increments were captured every 15 min. Image stacks were projected.

HeLa cells [5] = assay: MTT cytotoxicity assay, HeLa; type: cell-based, human; details: for IC50: Homo sapiens, HeLa, MTT; for SI (Selectivity Index): IC50 WRL-68 / IC50 HeLa
From the text: as §1
Cytotoxicity of MBIC was estimated by MTT assay. Briefly, 1 × 10^4 cells/well were seeded in a 96-well plate and incubated at 37 °C in 5 % CO2. After 24 h, cells were treated with different concentrations (0.02, 0.04, 0.1, 0.2, 0.4, 0.8, 1.5, 3, 6, 12, 25, 50 μM) of MBIC. 0.01 % DMSO was used as vehicle control. Cells were incubated for 24 and 48 h at 37 °C. Subsequently, 50 μl/well of 3-(4,5-dimethylthiazol-2-yl)-2,5-diphenyltetrazolium bromide (MTT, 2 mg/ml) was added and incubated for 2 h. After the incubation, the media was discarded and 100 μl DMSO was replaced into each well to dissolve the formazan crystal. The colorimetric assay was quantified at 570 nm wavelength using Chameleon V microplate reader (Hidex, Turku, Finland). The anti-proliferation activity of MBIC was expressed as an IC50 value. The percentage of cell viability was calculated as described previously.

[6] = system: Bcl-2, Bax, cleaved caspase-3/7/9, cleaved PARP; assay: Western blot, mitochondrial-dependent apoptotic proteins in HeLa cells; type: cell-based, human; details: HeLa, 0.21, 0.42 and 1 μM, 24 h
Experimental: Western blot analysis was used to investigate protein expression levels. It was adopted by Suresh Kumar et al.. Briefly, 1 × 10^5 cells/flask was seeded and treated with MBIC in a dose-dependent manner for 24 h. Cells treated with colchicine and nocodazole served as positive controls. Cells were collected and lysed in RIPA buffer supplemented with a 10 μl protease inhibitor cocktail, sodium orthovanadate, and PMSF (Santa Cruz, USA). The lysate was stored at −80 °C until further use. A 40 μg of sample protein was resolved on 10 % SDS-PAGE and transferred to a polyvinylidene difluoride (PVDF) membrane (Merck Millipore, USA). The membrane was blocked in 5 % BSA for 1 h at room temperature following an overnight incubation at 4 °C with the following primary antibodies: Anti-Cyclin B1, anti-CDK1, anti-BubR1, anti-Aurora B, anti-cleaved PARP, anti-cleaved caspase-3/7/9, anti-Bcl-2 and anti-Bax (1:1000) (Cell Signaling Technology (CST), USA), mouse anti β-actin (1:40000) (Sigma-Aldrich, USA) antibodies.
Membranes were washed with 1X TBS-T prior to incubating with HRP-conjugated goat anti-mouse or anti-rabbit secondary antibodies for 2 h at room temperature. Membranes were washed 3 times with 1X TBS-T to remove excess antibodies before the proteins-antibody complex was detected with Amersham ECL prime western blotting detection reagent (GE Healthcare, USA). Western blot images were quantified and processed by ImageJ software (NIH, USA).

For COC(=O)c1ccc2[nH]c(-c3cc(F)ccc3O)nc2c1 [MBIC, Methyl 2-(5-fluoro-2-hydroxyphenyl)-1H-benzo[d]imidazole-5-carboxylate], which IC50 (HeLa cells [1]) is on record?
Its IC50 is 210 ± 20 nM.

And the cytochrome c release (HeLa cells [2]; 0.2 and 0.4 μM)?
The cytochrome c release was “considerable elevation”.

What about the “cell number (loss of cells)” value (HeLa cells [2]; 0.2 and 0.42 μM) of the same compound?
Its value is “dose-dependent loss of cells”.

What about the membrane permeability (HeLa cells [2]; 0.2 and 0.42 μM) of the same compound?
Its membrane permeability is “increase of membrane permeability”.

What about the “mitochondrial membrane potential (MMP, Δψm)” value (HeLa cells [2]; 0.2 and 0.42 μM) of the same compound?
The value was “exhaustion of MMP”.

And the IC50 [3]?
The IC50 was under 5000 nM.

What about the “mitotic spindle formation in live-cell imaging” value [4] of the same compound?
Its value is “did not form the spindle”.

What about the IC50 (HeLa cells [5]; 24 hours) of the same compound?
Its IC50 is 210 ± 20 nM.

And the IC50 (HeLa cells [5]; 48 hours)?
The IC50 was 190 ± 30 nM.

And the “SI (Selectivity Index)” value (HeLa cells [5]; 24 hours)?
Its value is 48.04.

What about the “SI (Selectivity Index)” value (HeLa cells [5]; 48 hours) of the same compound?
Its value is 37.68.

What about the “selectivity in HeLa cells” value (HeLa cells [5]; versus WRL-68, 24 and 48 h) of the same compound?
Its value is over 30 fold.

What about the “Bax protein level (Western blot)” value [6] of the same compound?
The value was “up-regulation”.

What about the “Bcl-2 protein level (Western blot)” value [6] of the same compound?
The value was “down-regulation”.

And the “cleaved (activated) caspase-3/7/9 level (Western blot)” value [6]?
Its value is “increased”.

What about the “cleaved PARP level (Western blot)” value [6] of the same compound?
Its value is “increased level”.
